Data taken from patent US20120202690A1, “HERBICIDAL COMPOUNDS” (SYNGENTA LIMITED, priority 2009, published 2012).

How the values were obtained:
Type in all cases: in vivo
Setaria faberi (SETFA) [1] = experiment: Post-emergence biological efficacy, glasshouse, 500 or 1000 g/ha, evaluated after 13 days (100=total damage to plant; 0=no damage to plant); settings: rate 1,000 g/ha; for pest or weed control at 1000 g/ha: Setaria faberi, 312 h, read-out: Percentage damage caused to weed species, post-emergence, SETFA
Method in brief: (§1)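 Weed seeds were sown in standard soil in pots and the plants treated post-emergence. Afterwards they were grown on in a controlled glasshouse at 24/16° C. day/night with 14 hours light and 65% humidity, and watered twice daily.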

[2] = test system: Echinochloa crusgaffi (ECHCG); experiment: as above; settings: rate 1,000 g/ha; for pest or weed control at 1000 g/ha: Echinochloa, 312 h, read-out: Percentage damage caused to weed species, post-emergence, ECHCG
Method in brief: as §1

Solanum nigrum (SOLNI) [3] = experiment: as above; settings: rate 1,000 g/ha; for pest or weed control at 1000 g/ha: Solanum nigrum, 312 h, read-out: Percentage damage caused to weed species, post-emergence, SOLNI
Method in brief: as §1

[4] = test system: Amaranthus retroflexus (AMARE); experiment: as above; settings: rate 1,000 g/ha; for pest or weed control at 1000 g/ha: Amaranthus retroflexus, 312 h, read-out: Percentage damage caused to weed species, post-emergence, AMARE
Method in brief: as §1

[5] = test system: Ipomoea hederaceae (IPOHE); experiment: as above; settings: rate 1,000 g/ha; for pest or weed control at 1000 g/ha: Ipomoea, 312 h, read-out: Percentage damage caused to weed species, post-emergence, IPOHE
Method in brief: as §1

[6] = test system: Alopecurus myosuroides (ALOMY); experiment: as above; settings: rate 1,000 g/ha; for pest or weed control at 1000 g/ha: Alopecurus myosuroides, 312 h, read-out: Percentage damage caused to weed species, post-emergence, ALOMY
Method in brief: as §1

Setaria faberi (SETFA) [7] = experiment: Pre-emergence biological efficacy, glasshouse, 1000 g/ha, evaluated after 13 days (100=total damage to plant; 0=no damage to plant); settings: rate 1,000 g/ha; for pest or weed control at 1000 g/ha: Setaria faberi, 312 h, read-out: Percentage damage caused to weed species, pre-emergence, SETFA
Method in brief: (§2)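 Test species are sown into pots of standard soil. Plants then grow in the glasshouse under controlled conditions (24/16° C. day/night, 14 hours light, 65% humidity) and receive water twice a day.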

[8] = test system: Echinochloa crus-galli (ECHCG); experiment: as above; settings: rate 1,000 g/ha; for pest or weed control at 1000 g/ha: Echinochloa crus-galli, 312 h, read-out: Percentage damage caused to weed species, pre-emergence, ECHCG
Method in brief: as §2

Solanum nigrum (SOLNI) [9] = experiment: as above; settings: rate 1,000 g/ha; for pest or weed control at 1000 g/ha: Solanum nigrum, 312 h, read-out: Percentage damage caused to weed species, pre-emergence, SOLNI
Method in brief: as §2

[10] = test system: Amaranthus retroflexus (AMARE); experiment: as above; settings: rate 1,000 g/ha; for pest or weed control at 1000 g/ha: Amaranthus retroflexus, 312 h, read-out: Percentage damage caused to weed species, pre-emergence, AMARE
Method in brief: as §2

[11] = test system: Ipomoea hederaceae (IPOHE); experiment: as above; settings: rate 1,000 g/ha; for pest or weed control at 1000 g/ha: Ipomoea, 312 h, read-out: Percentage damage caused to weed species, pre-emergence, IPOHE
Method in brief: as §2

[12] = test system: Alopecurus myosuroides (ALOMY); experiment: as above; settings: rate 1,000 g/ha; for pest or weed control at 1000 g/ha: Alopecurus myosuroides, 312 h, read-out: Percentage damage caused to weed species, pre-emergence, ALOMY
Method in brief: as §2

SMILES | pest or weed control at 1000 g/ha (Setaria faberi (SETFA) [1]) [%] | pest or weed control at 1000 g/ha [2] [%] | pest or weed control at 1000 g/ha (Solanum nigrum (SOLNI) [3]) [%] | pest or weed control at 1000 g/ha [4] [%] | pest or weed control at 1000 g/ha [5] [%] | pest or weed control at 1000 g/ha [6] [%] | pest or weed control at 1000 g/ha (Setaria faberi (SETFA) [7]) [%] | pest or weed control at 1000 g/ha [8] [%] | pest or weed control at 1000 g/ha (Solanum nigrum (SOLNI) [9]) [%] | pest or weed control at 1000 g/ha [10] [%] | pest or weed control at 1000 g/ha [11] [%] | pest or weed control at 1000 g/ha [12] [%] | also measured
COc1c(Cl)ccc(-c2cc3[nH]cc(C)c3c(C(=O)O)n2)c1F [Compound 22-63, 4-Carboxy-6-(4-chloro-2-fluoro-3-methoxyphenyl)-3-methyl-1H-pyrrolo[3,2-c]pyridine] | 90 | 70 | 80 | 70 | 70 | 40 | 0 | 0 | 60 | 20 | 70 | 0 | 
COC(=O)c1nc(-c2ccc(Cl)c(OC)c2F)cc2[nH]cc(C)c12 [Compound 22-64, 6-(4-chloro-2-fluoro-3-methoxyphenyl)-4-methoxycarbonyl-3-methyl-1H-pyrrolo[3,2-c]pyridine] | 70 | 80 | 90 | 100 | 70 | 50 | 20 | 70 | 80 | 90 | 60 | 10 | 
CCOC(=O)c1nc(-c2ccc(Cl)c(OC)c2F)cc2[nH]cc(C)c12 [Compound 22-75, 6-(4-chloro-2-fluoro-3-methoxyphenyl)-4-ethoxycarbonyl-3-methyl-1H-pyrrolo[3,2-c]pyridine] | 50 | 20 | 90 | 80 | 60 | 10 | 0 | 10 | 80 | 70 | 90 | 10 | 
CCCCCCCCOC(=O)c1nc(-c2ccc(Cl)c(OC)c2F)cc2[nH]cc(C)c12 [Compound 22-77] |  |  |  |  |  |  |  |  |  |  |  |  | Percentage damage caused to weed species, post-emergence, SETFA (Setaria faberi (SETFA) [1]): 0%; Percentage damage caused to weed species, post-emergence, ECHCG [2]: 0%; Percentage damage caused to weed species, post-emergence, SOLNI (Solanum nigrum (SOLNI) [3]): 90%; Percentage damage caused to weed species, post-emergence, AMARE [4]: 70%; Percentage damage caused to weed species, post-emergence, IPOHE [5]: 30%; Percentage damage caused to weed species, post-emergence, ALOMY [6]: 10%; Percentage damage caused to weed species, pre-emergence, SETFA (Setaria faberi (SETFA) [7]): 20%; Percentage damage caused to weed species, pre-emergence, ECHCG [8]: 0%; Percentage damage caused to weed species, pre-emergence, SOLNI (Solanum nigrum (SOLNI) [9]): 80%; Percentage damage caused to weed species, pre-emergence, AMARE [10]: 20%; Percentage damage caused to weed species, pre-emergence, IPOHE [11]: 90%; Percentage damage caused to weed species, pre-emergence, ALOMY [12]: 10%
COc1c(Cl)ccc(-c2cc3[nH]cc(C)c3c(C(=O)OC(C)C)n2)c1F [Compound 22-78, 6-(4-Chloro-2-fluoro-3-methoxyphenyl)-4-isopropoxycarbonyl-3-methyl-1H-pyrrolo[3,2-c]pyridne] | 0 | 0 | 60 | 0 | 70 | 0 | 0 | 0 | 10 | 20 | 0 | 0 | 
CCCCCC(C)OC(=O)c1nc(-c2ccc(Cl)c(OC)c2F)cc2[nH]cc(C)c12 (stereo not drawn) [Compound 22-79, 6-(4-Chloro-2-fluoro-3-methoxyphenyl)-4-(hept-2-yloxycarbonyl)-3-methyl-1H-pyrrolo[3,2-c]pyridine] | 10 | 0 | 70 | 40 | 40 | 10 | 20 | 10 | 50 | 10 | 30 | 10 | 
C=CCOC(=O)c1nc(-c2ccc(Cl)c(OC)c2F)cc2[nH]cc(C)c12 [Compound 22-80, 6-(4-Chloro-2-fluoro-3-methoxyphenyl)-3-methyl-4-(prop-2-enyloxycarbonyl)-1H-pyrrolo[3,2-c]pyridine] | 20 | 10 | 90 | 70 | 50 | 10 | 20 | 20 | 60 | 40 | 50 | 20 | 
CCOCCOC(=O)c1nc(-c2ccc(Cl)c(OC)c2F)cc2[nH]cc(C)c12 [Compound 22-82, 6-(4-Chloro-2-fluoro-3-methoxyphenyl)-4-[(2-ethoxy)-ethoxycarbonyl]-3-methyl-1H-pyrrolo[3,2-c]pyridine] | 40 | 20 | 90 | 80 | 40 | 20 | 0 | 20 | 90 | 70 | 90 | 10 | 
CCCCOCCOC(=O)c1nc(-c2ccc(Cl)c(OC)c2F)cc2[nH]cc(C)c12 [Compound 22-83] | 40 | 20 | 90 | 90 | 60 | 20 | 10 | 20 | 80 | 0 | 80 | 20 | 
CCCCOCC(C)OC(=O)c1nc(-c2ccc(Cl)c(OC)c2F)cc2[nH]cc(C)c12 (stereo not drawn) [Compound 22-84, 4-[(1-n-Butoxy)-prop-2-yloxycarbonyl]-6-(4-chloro-2-fluoro-3-methoxyphenyl)-3-methyl-1H-pyrrolo[3,2-c]pyridine] | 30 | 20 | 90 | 80 | 40 | 20 | 10 | 20 | 70 | 40 | 80 | 20 | 
